Test results taken from the supplement of paper PMC10307832.

Assays:
Experiment in all cases: relative viability (nuclei count vs DMSO), 5 days (fraction); higher = more cells survive
ChaGo-K-1 = tested on: ChaGo-K-1
In short: (§1)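 Each reported value is a median over duplicate plates. It expresses relative viability: treated-well nuclei count divided by vehicle-well nuclei count. Lung cancer cell lines in 1536-well plates were dosed by pin tool a day after seeding, alone with one drug or with a fixed anchor-drug dose plus five library-drug doses (not always all listed) in √10 steps, and nuclei were counted after 5 days.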

EMC-BAC-2 = tested on: EMC-BAC-2
In short: as §1

EPLC-272H = tested on: EPLC-272H
In short: as §1

HCC-78 = tested on: HCC-78
In short: as §1

HCC-827 = tested on: HCC-827
In short: as §1

LCLC-103H = tested on: LCLC-103H
In short: as §1

LK-2 = tested on: LK-2
In short: as §1

LOU-NH91 = tested on: LOU-NH91
In short: as §1

LU99A = tested on: LU99A
In short: as §1

LXF-289 = tested on: LXF-289
In short: as §1

NCI-H1563 = tested on: NCI-H1563
In short: as §1

NCI-H1666 = tested on: NCI-H1666
In short: as §1

NCI-H1975 = tested on: NCI-H1975
In short: as §1

NCI-H2085 = tested on: NCI-H2085
In short: as §1

NCI-H2126 = tested on: NCI-H2126
In short: as §1

NCI-H23 = tested on: NCI-H23
In short: as §1

NCI-H2405 = tested on: NCI-H2405
In short: as §1

NCI-H3122 = tested on: NCI-H3122
In short: as §1

NCI-H322M = tested on: NCI-H322M
In short: as §1

RERF-LC-KJ = tested on: RERF-LC-KJ
In short: as §1

SK-LU-1 = tested on: SK-LU-1
In short: as §1

SW 1573 = tested on: SW 1573
In short: as §1

SW 900 = tested on: SW 900
In short: as §1

Oc1nc(-c2ccc(C(F)(F)F)cc2)nc2c1CSCC2 [XAV939] + COc1cccc2cc(-c3nc([C@H]4CC[C@H](C(=O)O)CC4)n4ncnc(N)c34)[nH]c12 [OSI-027] (partner 0.5 µM)
relative viability (ChaGo-K-1; first compound 0.08 µM): 0.562
relative viability (ChaGo-K-1; first compound 0.253 µM): 0.534
relative viability (ChaGo-K-1; first compound 0.8 µM): 0.533
relative viability (ChaGo-K-1; first compound 2.53 µM): 0.472
relative viability (EMC-BAC-2; first compound 0.08 µM): 0.402
relative viability (EMC-BAC-2; first compound 0.253 µM): 0.344
relative viability (EMC-BAC-2; first compound 0.8 µM): 0.319
relative viability (EMC-BAC-2; first compound 2.53 µM): 0.236
relative viability (EPLC-272H; first compound 0.08 µM): 0.312
relative viability (EPLC-272H; first compound 0.253 µM): 0.22
relative viability (EPLC-272H; first compound 0.8 µM): 0.261
relative viability (EPLC-272H; first compound 2.53 µM): 0.314
relative viability (HCC-78; first compound 0.08 µM): 0.341
relative viability (HCC-78; first compound 0.253 µM): 0.361
relative viability (HCC-78; first compound 0.8 µM): 0.356
relative viability (HCC-78; first compound 2.53 µM): 0.297
relative viability (HCC-827; first compound 0.08 µM): 0.817
relative viability (HCC-827; first compound 0.253 µM): 0.744
relative viability (HCC-827; first compound 0.8 µM): 0.826
relative viability (HCC-827; first compound 2.53 µM): 0.711
relative viability (LCLC-103H; first compound 0.08 µM): 0.534
relative viability (LCLC-103H; first compound 0.253 µM): 0.443
relative viability (LCLC-103H; first compound 0.8 µM): 0.463
relative viability (LCLC-103H; first compound 2.53 µM): 0.432
relative viability (LK-2; first compound 0.08 µM): 0.168
relative viability (LK-2; first compound 0.253 µM): 0.232
relative viability (LK-2; first compound 0.8 µM): 0.188
relative viability (LK-2; first compound 2.53 µM): 0.206
relative viability (LOU-NH91; first compound 0.08 µM): 0.701
relative viability (LOU-NH91; first compound 0.253 µM): 0.662
relative viability (LOU-NH91; first compound 0.8 µM): 0.69
relative viability (LOU-NH91; first compound 2.53 µM): 0.675
relative viability (LU99A; first compound 0.08 µM): 0.303
relative viability (LU99A; first compound 0.253 µM): 0.348
relative viability (LU99A; first compound 0.8 µM): 0.329
relative viability (LU99A; first compound 2.53 µM): 0.268
relative viability (LXF-289; first compound 0.08 µM): 0.817
relative viability (LXF-289; first compound 0.253 µM): 0.721
relative viability (LXF-289; first compound 0.8 µM): 0.746
relative viability (LXF-289; first compound 2.53 µM): 0.658
relative viability (NCI-H1563; first compound 0.08 µM): 0.844
relative viability (NCI-H1563; first compound 0.253 µM): 0.769
relative viability (NCI-H1563; first compound 0.8 µM): 0.708
relative viability (NCI-H1563; first compound 2.53 µM): 0.614
relative viability (NCI-H1666; first compound 0.08 µM): 0.883
relative viability (NCI-H1666; first compound 0.253 µM): 0.711
relative viability (NCI-H1666; first compound 0.8 µM): 0.752
relative viability (NCI-H1666; first compound 2.53 µM): 0.627
relative viability (NCI-H1975; first compound 0.08 µM): 0.829
relative viability (NCI-H1975; first compound 0.253 µM): 0.639
relative viability (NCI-H1975; first compound 0.8 µM): 0.681
relative viability (NCI-H1975; first compound 2.53 µM): 0.526
relative viability (NCI-H2085; first compound 0.08 µM): 0.638
relative viability (NCI-H2085; first compound 0.253 µM): 0.686
relative viability (NCI-H2085; first compound 0.8 µM): 0.958
relative viability (NCI-H2085; first compound 2.53 µM): 0.625
relative viability (NCI-H2126; first compound 0.08 µM): 0.651
relative viability (NCI-H2126; first compound 0.253 µM): 0.649
relative viability (NCI-H2126; first compound 0.8 µM): 0.682
relative viability (NCI-H2126; first compound 2.53 µM): 0.61
relative viability (NCI-H23; first compound 0.08 µM): 0.65
relative viability (NCI-H23; first compound 0.253 µM): 0.555
relative viability (NCI-H23; first compound 0.8 µM): 0.628
relative viability (NCI-H23; first compound 2.53 µM): 0.432
relative viability (NCI-H2405; first compound 0.08 µM): 0.605
relative viability (NCI-H2405; first compound 0.253 µM): 0.586
relative viability (NCI-H2405; first compound 0.8 µM): 0.611
relative viability (NCI-H2405; first compound 2.53 µM): 0.598
relative viability (NCI-H3122; first compound 0.08 µM): 1.08
relative viability (NCI-H3122; first compound 0.253 µM): 0.96
relative viability (NCI-H3122; first compound 0.8 µM): 0.91
relative viability (NCI-H3122; first compound 2.53 µM): 0.581
relative viability (NCI-H322M; first compound 0.08 µM): 0.615
relative viability (NCI-H322M; first compound 0.253 µM): 0.594
relative viability (NCI-H322M; first compound 0.8 µM): 0.504
relative viability (NCI-H322M; first compound 2.53 µM): 0.406
relative viability (RERF-LC-KJ; first compound 0.08 µM): 0.607
relative viability (RERF-LC-KJ; first compound 0.253 µM): 0.533
relative viability (RERF-LC-KJ; first compound 0.8 µM): 0.464
relative viability (RERF-LC-KJ; first compound 2.53 µM): 0.526
relative viability (SK-LU-1; first compound 0.08 µM): 0.387
relative viability (SK-LU-1; first compound 0.253 µM): 0.339
relative viability (SK-LU-1; first compound 0.8 µM): 0.394
relative viability (SK-LU-1; first compound 2.53 µM): 0.34
relative viability (SW 1573; first compound 0.08 µM): 0.602
relative viability (SW 1573; first compound 0.253 µM): 0.556
relative viability (SW 1573; first compound 0.8 µM): 0.542
relative viability (SW 1573; first compound 2.53 µM): 0.494
relative viability (SW 900; first compound 0.08 µM): 0.779
relative viability (SW 900; first compound 0.253 µM): 0.572
relative viability (SW 900; first compound 0.8 µM): 0.687
relative viability (SW 900; first compound 2.53 µM): 0.476
